# US7880007B2, “Bicyclic substituted phenyl piperidine modulators of muscarinic receptors” (Vertex Pharmaceuticals Incorporated, priority 2004, dated 2011)
# Columns and labels:
# Assay type in all cases: cell-based
# [1] = molecular target: T1, M1 muscarinic receptor (Homo sapiens, UniProt P11229); assay: Functional mobilization of intracellular calcium (FLIPR), M1-CHO cells; conditions: for Emax: 100% efficacy = maximum response obtained with the Carbachol control; for M1 Activity: M1-CHO cells, calcium mobilization (FLIPR)
# T1 construct: expressed in transfected cells; host or cells: CHO (M1-CHO)
# T1 sequence (P11229 1-460): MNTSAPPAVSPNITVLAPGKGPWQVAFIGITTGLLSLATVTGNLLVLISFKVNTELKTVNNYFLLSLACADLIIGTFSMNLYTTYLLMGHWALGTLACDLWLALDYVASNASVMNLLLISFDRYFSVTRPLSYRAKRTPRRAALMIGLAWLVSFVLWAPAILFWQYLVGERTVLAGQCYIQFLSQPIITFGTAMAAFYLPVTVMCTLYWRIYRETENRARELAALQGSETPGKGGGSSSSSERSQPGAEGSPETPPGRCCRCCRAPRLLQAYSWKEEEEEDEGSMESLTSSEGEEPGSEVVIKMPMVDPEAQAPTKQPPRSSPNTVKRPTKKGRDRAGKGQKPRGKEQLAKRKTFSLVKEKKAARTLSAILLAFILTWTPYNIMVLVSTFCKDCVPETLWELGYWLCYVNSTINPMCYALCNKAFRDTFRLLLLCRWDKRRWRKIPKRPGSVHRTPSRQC
# How it was run: (§1)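 CHO cells expressing human M1–M4 receptors loaded with Fluo-3 AM or Calcium 3 dye (1 mM probenecid, pH 7.4); 0.5% DMSO final. Agonist mode: compound added directly; antagonist mode: 15 min pre-incubation or co-application, then carbachol at EC80. Fluorescence read 60 s on FLIPR; efficacy relative to carbachol maximum.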
# [2] = molecular target: T2, M2 muscarinic receptor (Homo sapiens, UniProt P08172); assay: Functional mobilization of intracellular calcium (FLIPR), M2-CHO cells; conditions: for Emax: 100% efficacy = maximum response obtained with the Carbachol control; for M2 Activity: M2-CHO cells, calcium mobilization (FLIPR)
# T2 construct: expressed in transfected cells; host or cells: CHO (M2-CHO)
# T2 sequence (P08172 1-466): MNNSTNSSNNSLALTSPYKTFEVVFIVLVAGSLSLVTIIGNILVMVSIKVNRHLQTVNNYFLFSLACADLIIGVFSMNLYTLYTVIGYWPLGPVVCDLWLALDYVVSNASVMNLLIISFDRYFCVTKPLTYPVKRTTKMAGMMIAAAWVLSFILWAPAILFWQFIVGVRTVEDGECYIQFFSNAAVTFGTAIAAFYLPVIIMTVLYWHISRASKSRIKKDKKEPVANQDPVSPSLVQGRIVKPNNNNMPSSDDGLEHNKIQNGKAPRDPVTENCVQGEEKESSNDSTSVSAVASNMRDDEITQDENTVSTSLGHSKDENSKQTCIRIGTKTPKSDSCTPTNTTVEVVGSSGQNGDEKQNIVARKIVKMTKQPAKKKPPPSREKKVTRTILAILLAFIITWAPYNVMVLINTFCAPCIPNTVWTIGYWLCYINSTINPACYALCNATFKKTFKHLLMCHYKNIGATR
# How it was run: as §1
# [3] = molecular target: T3, M3 muscarinic receptor (Homo sapiens, UniProt P20309); assay: Functional mobilization of intracellular calcium (FLIPR), M3-CHO cells; conditions: for Emax: 100% efficacy = maximum response obtained with the Carbachol control; for M3 Activity: M3-CHO cells, calcium mobilization (FLIPR)
# T3 construct: expressed in transfected cells; host or cells: CHO (M3-CHO)
# T3 sequence (P20309 whole entry): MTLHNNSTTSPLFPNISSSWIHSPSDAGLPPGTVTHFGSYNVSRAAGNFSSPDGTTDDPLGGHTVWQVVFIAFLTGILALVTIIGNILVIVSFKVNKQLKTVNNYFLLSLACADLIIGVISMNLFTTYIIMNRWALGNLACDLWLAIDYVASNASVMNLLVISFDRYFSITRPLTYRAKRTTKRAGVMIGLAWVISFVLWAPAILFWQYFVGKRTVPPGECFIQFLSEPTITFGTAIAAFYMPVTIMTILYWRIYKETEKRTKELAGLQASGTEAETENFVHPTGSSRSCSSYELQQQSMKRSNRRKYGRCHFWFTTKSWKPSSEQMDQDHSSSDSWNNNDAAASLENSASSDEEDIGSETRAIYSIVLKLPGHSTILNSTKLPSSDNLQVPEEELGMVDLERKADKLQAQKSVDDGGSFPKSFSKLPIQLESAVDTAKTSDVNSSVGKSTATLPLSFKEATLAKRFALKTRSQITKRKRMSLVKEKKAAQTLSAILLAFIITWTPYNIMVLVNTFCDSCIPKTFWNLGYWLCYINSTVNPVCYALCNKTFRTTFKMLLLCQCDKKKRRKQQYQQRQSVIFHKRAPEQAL
# How it was run: as §1
# [4] = molecular target: T4, M4 muscarinic receptor (Homo sapiens, UniProt P08173); assay: Functional mobilization of intracellular calcium (FLIPR), M4-CHO cells; conditions: for Emax: 100% efficacy = maximum response obtained with the Carbachol control; for M4 Activity: M4-CHO cells, calcium mobilization (FLIPR)
# T4 construct: expressed in transfected cells; host or cells: CHO (M4-CHO)
# T4 sequence (P08173 1-479): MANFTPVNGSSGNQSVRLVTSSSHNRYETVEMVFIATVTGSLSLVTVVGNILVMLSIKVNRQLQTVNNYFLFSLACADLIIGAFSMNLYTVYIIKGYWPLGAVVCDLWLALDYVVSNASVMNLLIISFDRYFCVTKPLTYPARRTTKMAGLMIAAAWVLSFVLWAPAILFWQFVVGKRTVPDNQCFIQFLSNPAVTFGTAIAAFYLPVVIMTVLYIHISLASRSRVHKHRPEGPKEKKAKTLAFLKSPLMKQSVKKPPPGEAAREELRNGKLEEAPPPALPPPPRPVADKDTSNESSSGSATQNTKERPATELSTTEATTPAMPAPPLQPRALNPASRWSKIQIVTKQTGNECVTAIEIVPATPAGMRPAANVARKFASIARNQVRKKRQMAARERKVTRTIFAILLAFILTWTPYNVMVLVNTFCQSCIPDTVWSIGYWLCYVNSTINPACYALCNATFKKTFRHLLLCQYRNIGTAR
# How it was run: as §1
SMILES,Emax [1],Emax [2],Emax [3],Emax [4],M1 Activity [1],M2 Activity [2],M3 Activity [3],M4 Activity [4]
Cc1ccc(F)c(C2CCN(C3C[C@H]4CC[C@H]3C4)CC2)c1 (some centres unmarked) [Compound 290],25 to 100%,25 to 100%,< 25%,25 to 100%,++ (activity was measured to be from 1.0 μM to 5.0 μM),+ (activity was measured to be greater than 5.0 μM),+ (activity was measured to be greater than 5.0 μM),++ (activity was measured to be from 1.0 μM to 5.0 μM)
COc1ccccc1C1CCN(CC2=CC[C@@H]3C[C@@H]2C3(C)C)CC1 [Compound 291],< 25%,< 25%,< 25%,< 25%,+ (activity was measured to be greater than 5.0 μM),+ (activity was measured to be greater than 5.0 μM),+ (activity was measured to be greater than 5.0 μM),+ (activity was measured to be greater than 5.0 μM)
COc1ccc(F)cc1C1(OC)CCN(C[C@H]2C[C@H]3C=C[C@H]2C3)CC1 [Compound 292],25 to 100%,25 to 100%,< 25%,25 to 100%,++ (activity was measured to be from 1.0 μM to 5.0 μM),++ (activity was measured to be from 1.0 μM to 5.0 μM),+ (activity was measured to be greater than 5.0 μM),+++ (activity was measured to be less than 1.0 μM)
CCOC(=O)N1CCC(CN2CCC(OC)(c3cc(F)ccc3OC)CC2)CC1 [Compound 295],25 to 100%,25 to 100%,< 25%,25 to 100%,+++ (activity was measured to be less than 1.0 μM),++ (activity was measured to be from 1.0 μM to 5.0 μM),+ (activity was measured to be greater than 5.0 μM),+++ (activity was measured to be less than 1.0 μM)
COc1ccc(C(F)(F)F)cc1C1CCN(C2C[C@H]3CC[C@H]2C3)CC1 (some centres unmarked) [Compound 296],25 to 100%,< 25%,< 25%,25 to 100%,++ (activity was measured to be from 1.0 μM to 5.0 μM),+ (activity was measured to be greater than 5.0 μM),+ (activity was measured to be greater than 5.0 μM),++ (activity was measured to be from 1.0 μM to 5.0 μM)
CCOC(=O)N1CCC(CN2CCC(c3cc(-c4ccc5c(c4)OCO5)ccc3OC)CC2)CC1 [Compound 297],25 to 100%,< 25%,< 25%,25 to 100%,++ (activity was measured to be from 1.0 μM to 5.0 μM),+ (activity was measured to be greater than 5.0 μM),+ (activity was measured to be greater than 5.0 μM),++ (activity was measured to be from 1.0 μM to 5.0 μM)
"COc1ccc(Cl)cc1C1CCN(C2(C)CCCCC2)CC1 [Compound 300, 4-(5-chloro-2-methoxyphenyl)-1-(1-methylcyclo-hexyl)piperidine]",25 to 100%,25 to 100%,< 25%,25 to 100%,++ (activity was measured to be from 1.0 μM to 5.0 μM),++ (activity was measured to be from 1.0 μM to 5.0 μM),+ (activity was measured to be greater than 5.0 μM),+++ (activity was measured to be less than 1.0 μM)
Cc1ccccc1-c1ccccc1C1CCN([C@H]2C[C@H]3CC[C@H]2C3)CC1 [Compound 302],< 25%,< 25%,< 25%,25 to 100%,+ (activity was measured to be greater than 5.0 μM),+ (activity was measured to be greater than 5.0 μM),+ (activity was measured to be greater than 5.0 μM),++ (activity was measured to be from 1.0 μM to 5.0 μM)
COc1ccc(Cl)cc1C1(F)CCN([C@@H]2C[C@H]3CC[C@H]2C3)CC1 [Compound 309],25 to 100%,25 to 100%,< 25%,25 to 100%,+ (activity was measured to be greater than 5.0 μM),++ (activity was measured to be from 1.0 μM to 5.0 μM),+ (activity was measured to be greater than 5.0 μM),++ (activity was measured to be from 1.0 μM to 5.0 μM)
COc1cc(F)c(F)c(C2CCN(C3CC4CCC(C4)C3)CC2)c1 (centres unmarked) [Compound 310],< 25%,< 25%,< 25%,25 to 100%,+ (activity was measured to be greater than 5.0 μM),+ (activity was measured to be greater than 5.0 μM),+ (activity was measured to be greater than 5.0 μM),+++ (activity was measured to be less than 1.0 μM)

# More lines, main results first:
Emax [1],Emax [2],Emax [3],Emax [4],SMILES,M1 Activity [1],M2 Activity [2],M3 Activity [3],M4 Activity [4]
< 25%,< 25%,< 25%,25 to 100%,Fc1ccc(-c2ccccc2C2CCN([C@H]3C[C@H]4CC[C@H]3C4)CC2)cc1 [Compound 294],+ (activity was measured to be greater than 5.0 μM),+ (activity was measured to be greater than 5.0 μM),+ (activity was measured to be greater than 5.0 μM),++ (activity was measured to be from 1.0 μM to 5.0 μM)
25 to 100%,< 25%,< 25%,25 to 100%,CCOC(=O)N1CCC(CN2CCC(c3cc(-c4ccc(C(=O)NC)c(Cl)c4)ccc3OC)CC2)CC1 [Compound 298],++ (activity was measured to be from 1.0 μM to 5.0 μM),+ (activity was measured to be greater than 5.0 μM),+ (activity was measured to be greater than 5.0 μM),+++ (activity was measured to be less than 1.0 μM)
< 25%,< 25%,< 25%,25 to 100%,COc1c(F)cc(F)cc1C1CCN(C2CCOCC2)CC1 [Compound 305],+ (activity was measured to be greater than 5.0 μM),+ (activity was measured to be greater than 5.0 μM),+ (activity was measured to be greater than 5.0 μM),++ (activity was measured to be from 1.0 μM to 5.0 μM)
25 to 100%,25 to 100%,25 to 100%,25 to 100%,CCOC(=O)N1CCC(CN2CCC(c3ccccc3C)CC2)CC1 [Compound 306],+++ (activity was measured to be less than 1.0 μM),+++ (activity was measured to be less than 1.0 μM),+++ (activity was measured to be less than 1.0 μM),+++ (activity was measured to be less than 1.0 μM)
25 to 100%,25 to 100%,–,25 to 100%,COc1ccccc1C1CCN(CC2CC3C=CC2C3)CC1 (centres unmarked) [Compound 307],++ (activity was measured to be from 1.0 μM to 5.0 μM),+ (activity was measured to be greater than 5.0 μM),+ (activity was measured to be greater than 5.0 μM),+++ (activity was measured to be less than 1.0 μM)
